The text below walks through data of US9604975B2, “Indolyl-pyridone derivatives having checkpoint kinase 1 inhibitory activity” (Vernalis (R&D) Ltd., priority 2009, dated 2017).

Some results are limits rather than exact numbers.

For the assay, the target named is T1, CHK1 (Homo sapiens, UniProt O14757).
T1 construct: His; purchased Invitrogen
T1 sequence (O14757 1-476): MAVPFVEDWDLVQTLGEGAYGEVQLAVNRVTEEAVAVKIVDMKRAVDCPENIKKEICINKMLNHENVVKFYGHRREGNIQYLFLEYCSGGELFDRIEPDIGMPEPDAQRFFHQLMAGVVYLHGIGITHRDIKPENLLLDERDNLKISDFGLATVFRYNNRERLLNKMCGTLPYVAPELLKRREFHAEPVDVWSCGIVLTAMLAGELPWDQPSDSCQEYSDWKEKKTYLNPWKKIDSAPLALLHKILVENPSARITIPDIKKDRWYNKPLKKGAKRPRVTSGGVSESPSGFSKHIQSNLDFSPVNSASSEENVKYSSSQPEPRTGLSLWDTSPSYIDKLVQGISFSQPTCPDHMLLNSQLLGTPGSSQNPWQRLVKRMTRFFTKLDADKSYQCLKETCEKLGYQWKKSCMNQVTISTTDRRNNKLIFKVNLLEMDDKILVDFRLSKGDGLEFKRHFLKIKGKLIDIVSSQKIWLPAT
Kind of assay: CHK1 Enzyme Assay (phosphorylation of Chktide peptide, 33P-ATP filter assay). The assay is classed as biochemical. The conditions noted are these: 12.5 nM His-CHK1, 0.01 mM ATP, 40 minutes at 30° C.; read-out: CHK1 Enzyme Activity (IC50 range). The method in brief:
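Filter-binding radiometric readout of 33P incorporation into Chktide (14.8 μM), after a 40 min, 30 °C reaction at pH 7.5 (50 mM Hepes-NaOH, 0.1 mg/mL BSA). The reaction contained 12.5 nM His-tagged CHK1, inhibitor and 0.01 mM cold ATP plus labelled ATP.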
As a reminder, the IC50 is the concentration that inhibits the measured activity by half. `Cc1ccc(Cn2cc(C(=O)Nc3c[nH]c(=O)c(-c4cc5cc(CN6C[C@@H](C)O[C@@H](C)C6)ccc5[nH]4)c3)cn2)cc1` [Example 74, 1-(4-Methyl-benzyl)-1H-pyrazole-4-carboxylic acid {5-[5-(cis-2,6-dimethyl-morpholin-4-ylmethyl)-1H-indol-2-yl]-6-oxo-1,6-dihydro-pyridin-3-yl}-amide]: the half-maximal inhibitory concentration (IC50) is less than 100 nM.

For `CCN(CC)Cc1ccc2[nH]c(-c3cc(NC(=O)c4cnn(Cc5ccc(C)cc5)c4)c[nH]c3=O)cc2c1` [Example 75, 1-(4-Methyl-benzyl)-1H-pyrazole-4-carboxylic acid [5-(5-diethylaminomethyl-1H-indol-2-yl)-6-oxo-1,6-dihydro-pyridin-3-yl]-amide], the IC50 was less than 100 nM.

As for `C[C@@H]1CN(Cc2ccc3[nH]c(-c4cc(NC(=O)c5cnn(Cc6ccc(F)cc6)c5)c[nH]c4=O)cc3c2)C[C@H](C)O1` [Example 76, 1-(4-Fluoro-benzyl)-1H-pyrazole-4-carboxylic acid {5-[5-(cis-2,6-dimethyl-morpholin-4-ylmethyl)-1H-indol-2-yl]-6-oxo-1,6-dihydro-pyridin-3-yl}-amide], the 50% inhibitory concentration (IC50) was less than 100 nM.

With `CN(Cc1ccc2[nH]c(-c3cc(NC(=O)c4cnn(Cc5ccccc5)c4)c[nH]c3=O)cc2c1)C1CCCCC1` [Example 77], the IC50 is less than 100 nM.

As to `COCCN(C)Cc1ccc2[nH]c(-c3cc(NC(=O)c4cnn(Cc5ccccc5)c4)c[nH]c3=O)cc2c1` [Example 79, 1-Benzyl-1H-pyrazole-4-carboxylic acid [5-(5-{1(2-methoxy-ethyl)-methyl-aminol-methyl}-1H-indol-2-yl)-6-oxo-1,6-dihydro-pyridin-3-yl]-amide], the IC50 is less than 100 nM.

As to `O=C(Nc1c[nH]c(=O)c(-c2cc3cc(CN4CCCCC4)ccc3[nH]2)c1)c1cnn(Cc2ccc(F)cc2)c1` [Example 80, 1-(4-Fluoro-benzyl)-1H-pyrazole-4-carboxylic acid [6-oxo-5-(5-piperidin-1-ylmethyl-1H-indol-2-yl)-1,6-dihydro-pyridin-3-yl]-amide], the IC50 is less than 100 nM.

With `O=C(Nc1c[nH]c(=O)c(-c2cc3cc(CN4CCC(F)CC4)ccc3[nH]2)c1)c1cnn(Cc2ccc(F)cc2)c1` [Example 81, 1-(4-Fluoro-benzyl)-1H-pyrazole-4-carboxylic acid {5-[5-(4-fluoro-piperidin-1-ylmethyl)-1H-indol-2-yl]-6-oxo-1,6-dihydro-pyridin-3-yl}-amide], the IC50 is less than 100 nM.

With `CC1CCN(Cc2ccc3[nH]c(-c4cc(NC(=O)c5cnn(Cc6ccc(F)cc6)c5)c[nH]c4=O)cc3c2)CC1` [Example 82, 1-(4-Fluoro-benzyl)-1H-pyrazole-4-carboxylic acid {5-[5-(4-methyl-piperidin-1-ylmethyl)-1H-indol-2-yl]-6-oxo-1,6-dihydro-pyridin-3-yl}-amide], the IC50 is less than 100 nM.

Turning to `CCNCc1ccc2[nH]c(-c3cc(NC(=O)c4cnn(Cc5ccc(F)cc5)c4)c[nH]c3=O)cc2c1` [Example 83, 1-(4-Fluoro-benzyl)-1H-pyrazole-4-carboxylic acid [5-(5-ethylaminomethyl-1H-indol-2-yl)-6-oxo-1,6-dihydro-pyridin-3-yl]-amide], the IC50 was less than 100 nM.

For `CN(Cc1ccc2[nH]c(-c3cc(NC(=O)c4cnn(Cc5ccc(F)cc5)c4)c[nH]c3=O)cc2c1)C1CCCCC1` [Example 84], the IC50 was less than 100 nM.

On to `CC(c1ccccc1)n1cc(C(=O)Nc2c[nH]c(=O)c(-c3cc4cc(CN5CCCCC5)ccc4[nH]3)c2)cn1` (stereo not shown) [Example 85, 1-(1-Phenyl-ethyl)-1H-pyrazole-4-carboxylic acid [6-oxo-5-(5-piperidin-1-ylmethyl-1H-indol-2-yl)-1,6-dihydro-pyridin-3-yl]-amide], for which the IC50 was less than 100 nM.

In the case of `CC(c1ccccc1)n1cc(C(=O)Nc2c[nH]c(=O)c(-c3cc4cc(CN5CCOCC5)ccc4[nH]3)c2)cn1` (stereo not shown) [Example 86, 1-(1-Phenyl-ethyl)-1H-pyrazole-4-carboxylic acid [5-(5-morpholin-4-ylmethyl-1H-indol-2-yl)-6-oxo-1,6-dihydro-pyridin-3-yl]-amide], the IC50 is less than 100 nM.

Take `CC(c1ccc(F)cc1)n1cc(C(=O)Nc2c[nH]c(=O)c(-c3cc4cc(CN5CCCCC5)ccc4[nH]3)c2)cn1` (stereo not shown) [Example 88, 1-[1-(4-Fluoro-phenyl)-ethyl]-1H-pyrazole-4-carboxylic acid [6-oxo-5-(5-piperidin-1-ylmethyl-1-H-indol-2-yl)-1,6-dihydro-pyridin-3-yl]-amide]: the IC50 is less than 100 nM.

As for `CC(c1ccc(F)cc1)n1cc(C(=O)Nc2c[nH]c(=O)c(-c3cc4cc(CN5CCN(C)CC5)ccc4[nH]3)c2)cn1` (stereo not shown) [Example 89, 1-[1-(4-Fluoro-phenyl)-ethyl]-1H-pyrazole-4-carboxylic acid {5-[5-(4-methylpiperazin-1-ylmethyl)-1H-indol-2-yl]-6-oxo-1,6-dihydro-pyridin-3-yl}-amide], the IC50 was less than 100 nM.

As for `CC(c1ccc(F)cc1)n1cc(C(=O)Nc2c[nH]c(=O)c(-c3cc4cc(CN5CCC(F)CC5)ccc4[nH]3)c2)cn1` (stereo not shown) [Example 90, 1-[1-(Fluoro-phenyl)-ethyl]-1H-pyrrazole-4-carboxylic acid {5-[5-(4-fluoro-piperidin-1ylmethyl)-1H-indol-2-yl]-6-oxo-1,6-dihydro-pyridin-3-yl}-amide], the IC50 is less than 100 nM.

For the molecule `CC(c1ccccc1)n1cc(C(=O)Nc2c[nH]c(=O)c(-c3cc4cc(CN5C[C@@H](C)O[C@@H](C)C5)ccc4[nH]3)c2)cn1` (stereo partly drawn) [Example 91, 1-(1-Phenyl-ethyl)-1H-pyrazole-4-carboxylic acid {5-[5-(cis-2,6-dimethyl-morpholin-4-ylmethyl)-1H-indol-2-yl]-6-oxo-1,6-dihydro-pyridin-3-yl}-amide], the IC50 is less than 100 nM.

Turning to `CC1CCN(Cc2ccc3[nH]c(-c4cc(NC(=O)c5cnn(C(C)c6ccccc6)c5)c[nH]c4=O)cc3c2)CC1` (stereo not shown) [Example 92, 1-(1-Phenyl-ethyl)-1H-pyrazole-4-carboxylic acid {5-[5-(4-methyl-piperidin-1-ylmethyl)-1H-indol-2-yl]-6-oxo-1,6-dihydro-pyridin-3-yl}-amide], the IC50 was less than 100 nM.

With `CC(c1ccccc1)n1cc(C(=O)Nc2c[nH]c(=O)c(-c3cc4ccccc4[nH]3)c2)cn1` (stereo not shown) [Example 93, 1-(1-Phenylethyl)-1H-pyrazole-4-carboxylic acid [5-(1H-indol-2-yl)-6-oxo-1,6-dihydropyridin-3-yl]-amide], the IC50 was less than 100 nM.

Take `O=C(Nc1c[nH]c(=O)c(-c2cc3ccccc3[nH]2)c1)c1cnn(CCCc2ccccc2)c1` [Example 94, 1-(3-Phenyl-propyl)-1H-pyrazole-4-carboxylic acid [5-(1H-indol-2-yl)-6-oxo-1,6-dihydro-pyridin-3-yl]-amide]: the IC50 was less than 100 nM.

Turning to `O=C(Nc1c[nH]c(=O)c(-c2cc3cc(CN4CCCCC4)ccc3[nH]2)c1)c1cnn(CCc2ccc(F)cc2)c1` [Example 95, 1-[2-(4-Fluoro-phenyl)-ethyl]-1H-pyrazole-4-carboxylic acid [6-oxo-5-(5-piperidin-1-ylmethyl-1H-indol-2-yl)-1,6-dihydro-pyridin-3-yl]-amide], the IC50 was less than 100 nM.

Take `O=C(Nc1c[nH]c(=O)c(-c2cc3cc(CN4CCC(F)CC4)ccc3[nH]2)c1)c1cnn(CCc2ccc(F)cc2)c1` [Example 96, 1-[2-(4-Fluoro-phenyl)-ethyl]-1H-pyrazole-4-carboxylic acid {5-[5-(4-fluoro-piperidin-1-ylmethyl)-1H-indol-2-yl]-6-oxo-1,6-dihydro-pyridin-3-yl}-amide]: the IC50 was less than 100 nM.

Consider `O=C(Nc1cnn(Cc2ccc(F)c(F)c2)c1)c1c[nH]c(=O)c(-c2cc3cc(CN4CCC(F)CC4)ccc3[nH]2)c1` [Example 97, 5-[5-(4-Fluoro-piperidin-1-ylmethyl)-1H-indol-2-yl]-6-oxo-1,6-dihydro-pyridine-3-carboxylic acid [1-(3,4-difluoro-benzyl)-1H-pyrazol-4-yl]-amide], for which the IC50 is less than 100 nM.

As for `O=C(Nc1cnn(Cc2ccc(F)c(F)c2)c1)c1c[nH]c(=O)c(-c2cc3cc(CN4CCCC4)ccc3[nH]2)c1` [Example 98, 6-oxo-5-(5-pyrrolidin-1-ylmethyl-1H-indol-2-yl)-1,6-dihydro-pyridine-3-carboxylic acid [1-(3,4-difluoro-benzyl)-1H-pyrazol-4-yl]-amide], the IC50 was less than 100 nM.

Consider `O=C(Nc1cnn(Cc2ccc(F)c(F)c2)c1)c1c[nH]c(=O)c(-c2cc3cc(CN4CCOCC4)ccc3[nH]2)c1` [Example 99, 5-(5-Morpholin-4-ylmethyl-1H-indol-2-yl)-6-oxo-1,6-dihydro-pyridine-3-carboxylic acid [1-(3,4-difluoro-benzyl)-1H-pyrazol-4-yl]-amide], for which the IC50 was less than 100 nM.

Take `O=C(Nc1cnn(Cc2ccc(F)c(F)c2)c1)c1c[nH]c(=O)c(-c2cc3cc(CN4CCC(O)CC4)ccc3[nH]2)c1` [Example 100, 5-[5-(4-Hydroxypiperidin-1-ylmethyl)-1H-indol-2yl]-6-oxo-1,6-dihydropyridine-3-carboxylic acid[1-(3,4-difluorobenzyl)-1H-pyrazol-4-yl]-amide]: the IC50 was less than 100 nM.
